Data published in patent US20010053783A1, “PHARMACEUTICAL COMPOUNDS” (priority 1997, published 2001).

Target: human 2A receptor (5-HT2A) (Homo sapiens, UniProt P28223)
Assay: 5-HT2A receptor binding, displacement of [3H] ketanserin (Nelson et al.)
Conditions: human 2A receptor binding, versus 5-fluoroindolyl propyl comparator
Description: As mentioned above, the compounds of the invention are active at the serotonin, 5-HT2A, receptor.

human 2A receptor (5-HT2A), sequence (P28223 whole entry): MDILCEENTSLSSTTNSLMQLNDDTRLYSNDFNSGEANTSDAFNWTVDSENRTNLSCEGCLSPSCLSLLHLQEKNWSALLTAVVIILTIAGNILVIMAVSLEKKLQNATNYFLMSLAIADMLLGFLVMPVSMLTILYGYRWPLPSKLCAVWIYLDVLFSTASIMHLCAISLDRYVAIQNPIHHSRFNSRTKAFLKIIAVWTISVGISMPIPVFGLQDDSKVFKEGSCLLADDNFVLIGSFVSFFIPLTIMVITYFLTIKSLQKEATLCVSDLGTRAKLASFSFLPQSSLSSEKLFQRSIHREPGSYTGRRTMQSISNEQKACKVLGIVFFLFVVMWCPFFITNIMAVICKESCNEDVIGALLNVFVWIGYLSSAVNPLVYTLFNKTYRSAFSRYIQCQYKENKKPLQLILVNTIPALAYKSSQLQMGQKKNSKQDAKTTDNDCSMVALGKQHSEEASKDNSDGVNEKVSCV

Structure (SMILES): O=S1(=O)N(CCN2CC=C(c3c[nH]c4cc(F)ccc34)CC2)c2cccc3c2N1CCC3 [1-{2-[4-(6-Fluoro-[1H]-indol-3-yl)-1,2,3,6-tetrahydro-1-pyridinyl]-1-ethyl}-5,6-dihydro-1H,4H-1,2,5-thiadiazolo[4,3,2-ij]quinoline-2,2-dioxide]
- times more active than the closest structurally related compound of EP-A 0 433 149: approximately twenty-eight
